Results taken from patent publication US20250213519A1, “SYNERGY FOR INCREASING INSULIN SENSITIVITY” (Board of Supervisors of Louisiana State University and …, priority 2022, published 2025).
≈ marks a conversion by molar mass, not a printed value. Read-outs that look alike come from different tables or passages of the source.

Legend:
[1] = 0.12% myricetin in high fat and sucrose diet; cited from earlier work
human adipocytes [2] = test: Protein levels by Western blotting in human adipocytes treated for seven days; format: cell-based; details: for PGC-1α protein, myricetin added to NRBC: 50 nM myricetin + NRBC, compared to NRBC
PPARg P-serine 273 = test: Immunoblot of PPARg phosphorylation at serine 273; format: cell-based, human; details: 50 nM myricetin + 8 μM NR + 2 μM BC, 7 days
Procedure: Phosphorylation of PPARg by CDK5 at serine-273 is an important mechanism for inhibition of target genes for insulin sensitivity^7. Inhibitors of CDK5 have potential as diabetes drugs^8. Several studies have provided that myricetin is a CDK5 inhibitor and has insulin sensitizing characteristics that make it a potential therapeutic for diabetes^9,10. We previously analyzed NRBC for effects on PPARg phosphorylation at serine 273. Human adipocytes were treated with 8 μM NR and 2 μM BC for three, five and seven days, and protein was isolated and analyzed on immunoblots probed with an antibody specific for human P-serine 273 PPARg. The same blot was stripped and re-probed with an antibody for total human PPARg. Values in the histogram represent (P-ser 273 PPARg)/(total PPARg). […] The effect increases over time.
The experiment for analysis of phosphorylation of PPARg at P-273 was repeated to determine whether adding myricetin to NRBC can further inhibit PPARg P-273 phosphorylation. Cells were treated for seven days with 8 μM NR, 2 μM BC and 50 nM myricetin. Protein was analyzed on immunoblots probed with the same antibodies.

human adipocytes [3] = test: mRNA levels (qRT-PCR) in human adipocyte cultures treated for seven days; format: cell-based; details: 50 nM myricetin alone, 7 days
[4] = oral administration, high fat diet; cited from earlier work
[5] = cited from earlier work; for solubility in an acidic solution: acetic acid buffered
[6] = Pharmacokinetics of myricetin in rats; format: in vivo; details: plasma, po, from Table 1 (rat), converted
primary islets = details: up to 100 μm, 24 h; cited from earlier work
[7] = 25° C.; cited from earlier work
GLP-1R = GLP-1R (Homo sapiens, UniProt P43220); details: cited from earlier work
GLP-1R, sequence (P43220 24-463, species assumed): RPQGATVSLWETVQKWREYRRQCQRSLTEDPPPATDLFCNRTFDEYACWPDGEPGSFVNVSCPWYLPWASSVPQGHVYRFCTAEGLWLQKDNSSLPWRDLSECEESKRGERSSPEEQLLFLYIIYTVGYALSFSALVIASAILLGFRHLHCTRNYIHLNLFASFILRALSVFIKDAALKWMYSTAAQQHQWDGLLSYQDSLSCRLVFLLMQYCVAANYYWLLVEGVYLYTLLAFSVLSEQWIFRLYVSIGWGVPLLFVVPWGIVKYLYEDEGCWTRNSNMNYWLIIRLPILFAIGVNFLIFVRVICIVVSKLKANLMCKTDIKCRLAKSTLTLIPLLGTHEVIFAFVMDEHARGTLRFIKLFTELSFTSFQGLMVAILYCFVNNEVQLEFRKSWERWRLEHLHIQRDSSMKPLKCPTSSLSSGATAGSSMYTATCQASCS

[8] = cited from earlier work
CDK5 = CDK5 (Homo sapiens, UniProt Q00535); details: cited from earlier work
CDK5, sequence (Q00535 whole entry, species assumed): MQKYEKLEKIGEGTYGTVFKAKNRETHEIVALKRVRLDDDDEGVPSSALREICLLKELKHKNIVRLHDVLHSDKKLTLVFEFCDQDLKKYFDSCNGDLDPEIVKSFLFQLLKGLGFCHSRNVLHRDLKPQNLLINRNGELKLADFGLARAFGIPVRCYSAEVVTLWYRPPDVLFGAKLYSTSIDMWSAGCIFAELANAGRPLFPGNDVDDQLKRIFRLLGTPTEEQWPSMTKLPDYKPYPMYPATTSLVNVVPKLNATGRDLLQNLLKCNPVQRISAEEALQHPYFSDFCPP
CDK5, sequence (Q15078 whole entry partner, species assumed): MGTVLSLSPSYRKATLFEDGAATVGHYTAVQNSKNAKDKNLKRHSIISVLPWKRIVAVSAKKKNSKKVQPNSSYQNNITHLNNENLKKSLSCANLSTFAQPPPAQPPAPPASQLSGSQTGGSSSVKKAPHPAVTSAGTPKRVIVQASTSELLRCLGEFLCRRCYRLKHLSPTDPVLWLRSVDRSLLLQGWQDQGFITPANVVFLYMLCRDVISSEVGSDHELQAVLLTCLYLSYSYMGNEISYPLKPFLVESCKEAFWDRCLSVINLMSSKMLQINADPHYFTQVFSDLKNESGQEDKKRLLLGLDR

[9] = Myricetin toxicity in mice; format: in vivo; details: converted for human
human adipocytes [10] = test: Protein levels by Western blotting in human adipocytes treated for seven days; format: cell-based; details: for SIRT3 protein levels, NR combined with myricetin: 8 μM NR + 50 nM myricetin vs NR or myr alone
Description: Since we saw an increase in SIRT3 mRNA and myricetin upregulates SIRT3 protein in adipocytes from mice, we analyzed levels of SIRT3 protein in human adipocytes treated for seven days with the same concentrations of compounds. Protein was isolated from adipocytes and analyzed on immunoblots probed with antibodies that specifically bind human SIRT3 or human β-actin. […] However, adding myr to NR+BC boosted SIRT3 protein by 37%.
Human adipose-derived stem cells from overweight and obese female donors were purchased from LaCell, LLC (New Orleans, Louisiana) or isolated from lipoaspirate waste donated post-surgery from women with obesity using methods as previously described (31). Cells were seeded, maintained until two days after becoming confluent, and differentiated into adipocytes in the presence of rosiglitazone and isobutylmethylxanthine for five days as previously described (25). Treatments of adipocytes with 8 μM NR and 2 μM carotenoid, dissolved in DMSO at 1000×, started 5 days after the differentiation period and lasted for seven days in adipocyte maintenance medium with heat inactivated serum, before RNA and protein were isolated from adipocyte cultures.
Whole cell protein was isolated from differentiated cell cultures after treatment for seven days, lysed with RIPA buffer containing protease and phosphatase inhibitors, and pushed through a 20-gauge needle four times to disrupt organelles. Fifty micrograms of total cell protein were loaded per lane and resolved in 7.5% SDS-PAGE gels, transferred to nitrocellulose membranes, and probed overnight at 4° C. with specific primary antibodies. Anti-rabbit or -mouse secondary antibodies conjugated to horseradish peroxidase were used for detection of target proteins. Image J was used to quantify protein bands on Western blots. To adjust for variations in total protein loaded in each lane, β-actin was used.

[11] = rats orally administered 50 mg/kg and 100 mg/kg

For `O=c1c(O)c(-c2cc(O)c(O)c(O)c2)oc2cc(O)cc(O)c12` [myricetin], the “adiposity, circulating glucose and insulin” value [1] is listed as “reductions in adiposity, and circulating glucose and insulin”, the “PGC-1α protein, myricetin added to NR” value (human adipocytes [2]; 50 nM myricetin + 8 μM NR) is listed as “small increase” and the “PGC-1α protein, myricetin added to NRBC” value (human adipocytes [2]) is listed as “two-fold higher”. The “PGC-1α protein, myricetin added to NRBC” value (human adipocytes [2]; listed as Myricetin) was “over two-fold”, the PGC-1α protein levels (human adipocytes [2]; 50 nM myricetin, 7 days) was “robustly upregulated” and the “PPARg P-273 phosphorylation, myricetin added to NRBC” value (PPARg P-serine 273) was “did not further decrease PPARg P-273 relative to NRBC”. For the same compound, the “PPARg P-273 phosphorylation, myricetin added to NRBC” value (PPARg P-serine 273; listed as Myricetin) was “did not alter phosphorylation of PPARg at serine-273”, the “SIRT1 or SIRT3 mRNA levels” value (human adipocytes [3]) was “no effect” and the “fatty liver disease and circulating triglycerides” value [4] was “improved fatty liver disease and lowered circulating triglycerides”. For the same compound, the “solubility in an acidic solution” value ([5]; pH 1) was 777 µg/mL (≈ 2440 µM), the “solubility in an acidic solution” value ([5]; pH 2) was 576 µg/mL (≈ 1810 µM) and the “solubility in an acidic solution” value ([5]; pH 3) was 150 µg/mL (≈ 471 µM). For the same compound, the aqueous solubility ([5]; aqueous) was 17 µg/mL (≈ 53.4 µM), the Cmax ([6]; first value (50 mg/kg p.o.)) was 5 µM and the Cmax ([6]; second value (100 mg/kg p.o.)) was 8.7 µM. The “viability of primary islets” value (primary islets) was “no loss of viability”, the stability half-life [7] was 23 h and the GLP-1R agonist activity (GLP-1R) was “activity as a GLP-1R agonist at low micromolar concentrations”. The “AUC0-∞” value ([8]; rat, i.v., 0.5 mg/kg) was 1452.85 ± 170.30 ng·h/mL, the CL ([8]; rat, i.v., 0.5 mg/kg) was 5.83 ± 0.83 mL/min/kg and the Cmax ([8]; rat, i.v., 0.5 mg/kg) was 2232.16 ± 856.36 ng/mL. For the same compound, the Tmax ([8]; rat, i.v., 0.5 mg/kg) was 0 (pre-dose) h, the Vd ([8]; rat, i.v., 0.5 mg/kg) was 4.12 ± 1.52 L/kg and the t1/2 ([8]; rat, i.v., 0.5 mg/kg) was 6.99 ± 1.94 h. The “AUC0-∞” value ([8]; rat, p.o., 50 mg/kg) was 13,731.13 ± 5,574.58 ng · h/mL, the Bioavailability ([8]; rat, p.o., 50 mg/kg) was 9.62% and the Cmax ([8]; rat, p.o., 50 mg/kg) was 1488.75 ± 200.78 ng/mL. For the same compound, the Tmax ([8]; rat, p.o., 50 mg/kg) was 6.4 ± 0.89 h, the t1/2 ([8]; rat, p.o., 50 mg/kg) was 2.78 ± 0.81 h and the “AUC0-∞” value ([8]; rat, p.o., 100 mg/kg) was 28,081.62 ± 10,982.45 ng · h/mL. For the same compound, the Bioavailability ([8]; rat, p.o., 100 mg/kg) was 9.74%, the Cmax ([8]; rat, p.o., 100 mg/kg) was 2611.76 ± 1019.58 ng/mL and the Tmax ([8]; rat, p.o., 100 mg/kg) was 5.2 ± 3.03 h. For the same compound, the t1/2 ([8]; rat, p.o., 100 mg/kg) was 3.79 ± 0.75 h, the oral bioavailability [8, 11] was “approximately 10%” and the “time to maximal concentration (Tmax)” value [8, 11] was 6.5 h. The “CDK5 kinase activity inhibition EC50 (in words)” value (CDK5) was “low micromolar range”, the EC50 (CDK5; read-out: CDK5 inhibition EC50) was 71 µM and the “Tox, human equivalent” value [9] was 11 g. For the same compound, the “SIRT3 protein levels, NR combined with myricetin” value (human adipocytes [10]) was “does not increase SIRT3 protein levels”, the “SIRT3 protein levels, NR combined with myricetin” value (human adipocytes [10]; listed as Myricetin) was “did not increase SIRT3 protein levels” and the “SIRT3 protein levels, single agent” value (human adipocytes [10]; 8 μM NR or 50 nM myricetin, 7 days) was “upregulate SIRT3 protein levels”. The “increase in SIRT3 protein” value (human adipocytes [10]; myr added to NR+BC) was 37% and the “increase in SIRT3 mRNA and protein” value (human adipocytes [10]; myr added to NRBC (summary)) was “two-fold”.
